Test results from patent publication US20020019527A1 (priority 2000, published 2002).
Where a name gives a salt, the structure may show the parent alone.

Target: T1, Farnesyltransferase (FTase) (Bos taurus, UniProt P29702+P49355)
T1 construct: precipitation from a beef brain homogenate; from tissue; host or cells: bovine brain
Test: Farnesyltransferase inhibition (scintillation proximity assay, [3H]-FPP / biotin-K-ras peptide)
Format: biochemical, bovine
Conditions: compound at 10^−6 M; bovine FTase, 37° C., 30 minutes
Protocol: Farnesyltransferase (FTase) or geranylgeranyltransferase I (GGTase I) fractions were isolated from bovine brains and purified by a series of methods which separate FTase from GGTase I and GGTase I from GGTase II. The methods involved a partial purification of all three enzymes by precipitation from a beef brain homogenate with 30% to 50% saturated […] followed by chromatography on DEAE Sepharose. […] The catalytic purity of each enzyme was assayed separately with substrate acceptor proteins specific for that enzyme. After quickly freezing in liquid nitrogen, the various prenyl transferases were stored at −80° C.
The quenched reactions stood for 1 hour before analysis in a Packard TopCount scintillation counter. Purified compounds were dissolved in 100% ethanol and diluted 10-fold into the assay.

T1 sequence (P49355 whole entry, one chain of several): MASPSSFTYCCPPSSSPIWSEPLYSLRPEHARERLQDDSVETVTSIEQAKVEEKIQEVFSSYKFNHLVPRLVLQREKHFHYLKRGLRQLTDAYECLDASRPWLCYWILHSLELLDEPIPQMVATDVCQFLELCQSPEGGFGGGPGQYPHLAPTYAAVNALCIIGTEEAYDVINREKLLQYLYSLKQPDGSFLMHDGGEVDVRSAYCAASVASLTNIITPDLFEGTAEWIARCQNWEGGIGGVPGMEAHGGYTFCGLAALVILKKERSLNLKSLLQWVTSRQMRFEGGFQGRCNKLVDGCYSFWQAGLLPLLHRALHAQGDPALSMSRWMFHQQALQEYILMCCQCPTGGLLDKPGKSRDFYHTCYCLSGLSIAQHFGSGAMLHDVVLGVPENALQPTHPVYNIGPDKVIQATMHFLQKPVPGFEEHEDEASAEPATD

inhibition at 1 µM [%]	Compound	% Inhibition at 10^−6M [%]
100	Cn1cncc1C(NCc1ccc(Cl)cc1)c1ccc(C#N)c(-c2cccc3ccccc23)c1 (centres unmarked) [Example 42, 4-(((4-chlorobenzyl)amino)(1-methyl-1H-imidazol-5-yl)methyl)-2-(1-naphthyl)benzonitrile]	
100	Cn1cncc1C(NCc1ccc(Cl)c(Cl)c1)c1ccc(C#N)c(-c2cccc3ccccc23)c1 (centres unmarked) [Example 47, 4-(((3,4-dichlorobenzyl)amino)(1-methyl-1H-imidazol-5-yl)methyl)-2-(1-naphthyl)benzonitrile]	
100	CNC(=O)c1ccc(CNC(c2ccc(C#N)c(-c3cccc4ccccc34)c2)c2cncn2C)cc1 (centres unmarked) [Example 48, 4-((((4-cyano-3-(1-naphthyl)phenyl)(1-methyl-1H-imidazol-5-yl)methyl)amino)methyl)-N-methylbenzamide dihydrochloride]	
100	CCOC(=O)N1CCC(NC(c2ccc(C#N)c(-c3cccc4ccccc34)c2)c2cncn2C)CC1 (centres unmarked) [Example 50, ethyl 4-(((4-cyano-3-(1-naphthyl)phenyl)(1-methyl-1H-imidazol-5-yl)methyl)amino)-1-piperidinecarboxylate dihydrochloride]	
100	Cn1cncc1C(NCc1ccc(C#N)cn1)c1ccc(C#N)c(-c2cccc3ccccc23)c1 (centres unmarked) [Example 51, 6-((((4-cyano-3-(1-naphthyl)phenyl)(1-methyl-1H-imidazol-5-yl)methyl)amino)methyl)nicotinonitrile trihydrochloride]	
100	COC(=O)c1ccc(CNC(c2ccc(C#N)c(-c3cccc4ccccc34)c2)c2cncn2C)nc1 (centres unmarked) [Example 52, methyl 6-((((4-cyano-3-(1-naphthyl)phenyl)(1-methyl-1H-imidazol-5-yl)methyl)amino)methyl)nicotinate trihydrochloride]	
100	CC(=O)Nc1ccc(CNC(c2ccc(C#N)c(-c3cccc4ccccc34)c2)c2cncn2C)cc1 (centres unmarked) [Example 53, N-(4-((((4-cyano-3-(1-naphthyl)phenyl)(1-methyl-1H-imidazol-5-yl)methyl)amino)methyl)phenyl)acetamide dihydrochloride]	
100	Cn1cncc1C(NC1CCN(C(=O)OCc2ccccc2)CC1)c1ccc(C#N)c(-c2cccc3ccccc23)c1 (centres unmarked) [Example 54, benzyl 4-(((4-cyano-3-(1-naphthyl)phenyl)(1-methyl-1H-imidazol-5-yl)methyl)amino)-1-piperidinecarboxylate dihydrochloride]	
100	Cn1cncc1C(NC1CCN(Cc2ccccc2)CC1)c1ccc(C#N)c(-c2cccc3ccccc23)c1 (centres unmarked) [Example 55, 4-(((1-benzyl-4-piperidinyl)amino)(1-methyl-1H-imidazol-5-yl)methyl)-2-(1-naphthyl)benzonitrile trihydrochloride]	
100	Cn1cncc1C(NC1CCN(C(=O)OC(C)(C)C)CC1)c1ccc(C#N)c(-c2cccc3ccccc23)c1 (centres unmarked) [Example 56, tert-butyl 4-(((4-cyano-3-(1-naphthyl)phenyl)(1-methyl-1H-imidazol-5-yl)methyl)amino)-1-piperidinecarboxylate]	
100	Cn1cncc1C(NC1CCN(C(=O)c2ccccc2)CC1)c1ccc(C#N)c(-c2cccc3ccccc23)c1 (centres unmarked) [Example 57, 4-(((1-benzoyl4-piperidinyl)amino)(1-methyl-1H-imidazol-5-yl)methyl)-2-(1-naphthyl)benzonitrile dihydrochloride]	
100	Cn1cncc1C(NCc1ccc(C(N)=O)cc1)c1ccc(C#N)c(-c2cccc3ccccc23)c1 (centres unmarked) [Example 58, 4-((((4-cyano-3-(1-naphthyl)phenyl)(1-methyl-1H-imidazol-5-yl)methyl)amino)methyl)benzamide dihydrochloride]	
100	COC(=O)c1ccc(COC(c2ccc(C#N)c(-c3cccc4ccccc34)c2)c2cncn2C)cc1 (centres unmarked) [Example 64, methyl 4-(((4-cyano-3-(1-naphthyl)phenyl)(1-methyl-1H-imidazol-5-yl)methoxy)methyl)benzoate hydrochloride]	
100	Cn1cncc1C(OCc1ccc(Cl)cc1)c1ccc(C#N)c(-c2cccc3ccccc23)c1 (centres unmarked) [Example 66, 4-(((4-chlorobenzyl)oxy)(1-methyl-1H-imidazol-5-yl)methyl)-2-(1-naphthyl)benzonitrile hydrochloride]	
100	Cn1cncc1C(OCc1cccc(C(F)(F)F)c1)c1ccc(C#N)c(-c2cccc3ccccc23)c1 (centres unmarked) [Example 68, 4-((1-methyl-1H-imidazol-5-yl)((3-(trifluoromethyl)benzyl)oxy)methyl)-2-(1-naphthyl)benzonitrile hydrochloride]	
100	CN(C)C(=O)c1ccc(COC(c2ccc(C#N)c(-c3cccc4ccccc34)c2)c2cncn2C)cc1 (centres unmarked) [Example 70, 4-(((4-cyano-3-(1-naphthyl)phenyl)(1-methyl-1H-imidazol-5-yl)methoxy)methyl)-N,N-dimethylbenzamide hydrochloride]	
100	Cn1cncc1C(OCc1ccc(Cl)cc1Cl)c1ccc(C#N)c(-c2cccc3ccccc23)c1 (centres unmarked) [Example 72, 4-(((2,4-dichlorobenzyl)oxy)(1-methyl-1H-imidazol-5-yl)methyl)-2-(1-naphthyl)benzonitrile hydrochloride]	
100	Cn1cncc1C(OCc1ccc(S(C)(=O)=O)cc1)c1ccc(C#N)c(-c2cccc3ccccc23)c1 (centres unmarked) [Example 73, 4-((1-methyl-1H-imidazol-5-yl)((4-(methylsulfonyl)benzyl)oxy)methyl)-2-(1-naphthyl)benzonitrile hydrochloride]	

Further lines, the compound ahead of its results:

Compound	inhibition at 1 µM [%]	% Inhibition at 10^−6M [%]
Cn1cncc1C(OCc1ccc(C#N)cc1)c1ccc(C#N)c(-c2cccc3ncccc23)c1 (centres unmarked) [Example 43, 4-(((4-cyanobenzyl)oxy)(1-methyl-1H-imidazol-5-yl)methyl)-2-(5-quinolinyl)benzonitrile dihydrochloride]	100	
Cn1cncc1C(OCc1ccc(C#N)cc1)c1ccc(C#N)c(-c2cccc3cnccc23)c1 (centres unmarked) [Example 44, 4-(((4-cyanobenzyl)oxy)(1-methyl-1H-imidazol-5-yl)methyl)-2-(5-isoquinolinyl)benzonitrile]	100	
N#Cc1ccc(CN(Cc2ccc(C#N)c(-c3cccc4ccccc34)c2)Cc2cnc[nH]2)cc1 [Example 45, 4-(((4-cyanobenzyl)(1H-imidazol-5-ylmethyl)amino)methyl)-2-(1-naphthyl)benzonitrile dihydrochloride]	100	
N#Cc1ccc(COC(c2ccc(C#N)c(-c3cccc4ccccc34)c2)c2cnc[nH]2)cc1 (centres unmarked) [Example 46, 4-(((4-cyanobenzyl)oxy)(1H-imidazol-5-yl)methyl)-2-(1-naphthyl)benzonitrile hydrochloride]	100	
N#Cc1ccc(COC(c2ccc(C#N)c(-c3cccc4ccccc34)c2)c2cn(C(c3ccccc3)(c3ccccc3)c3ccccc3)cn2)cc1 (centres unmarked) [Example 49, 4-(((4-cyanobenzyl)oxy)(1-trityl-1H-imidazol-4-yl)methyl)-2-(1-naphthyl)benzonitrile]	62	
Cl.Cn1cncc1C(OCc1ccc([N+](=O)[O-])cc1)c1ccc(C#N)c(-c2cccc3ccccc23)c1 (centres unmarked) [Example 59, 4-((1-methyl-1H-imidazol-5-yl)((4-nitrobenzyl)oxy)methyl)-2-(1,1-naphthyl)benzonitrile hydrochloride]		100
Cn1cncc1C(OCc1ccc(C#N)cc1)c1ccc(C#N)c(I)c1 (centres unmarked) [Example 60, 4-(((4-cyanobenzyl)oxy)(1-methyl-1H-imidazol-5-yl)methyl)-2-iodobenzonitrile hydrochloride]	96	
Cn1cncc1C(OCc1ccc(C#N)c(Cl)c1)c1ccc(C#N)c(-c2cccc3ccccc23)c1 (centres unmarked) [Example 61, 4-(((3-chloro-4-cyanobenzyl)oxy)(1-methyl-1H-imidazol-5-yl)methyl)-2-(1-naphthyl)benzonitrile hydrochloride]	100	
Cn1cncc1C(SCc1ccc(C#N)cc1)c1ccc(C#N)c(-c2cccc3ccccc23)c1 (centres unmarked) [Example 62, 4-(((4-cyanobenzyl)sulfanyl)(1-methyl-1H-imidazol-5-yl)methyl)-2-(1-naphthyl)benzonitrile hydrochloride]	100	
Cn1cncc1C(OCc1ccc(C#N)c(I)c1)c1ccc(C#N)c(-c2cccc3ccccc23)c1 (centres unmarked) [Example 63, 4-(((4-cyano-3-iodobenzyl)oxy)(1-methyl-1H-imidazol-5-yl)methyl)-2-(1-naphthyl)benzonitrile hydrochloride]	100	
Cn1cncc1C(OCc1ccc(C(F)(F)F)cc1)c1ccc(C#N)c(-c2cccc3ccccc23)c1 (centres unmarked) [Example 65, 4-((1-methyl-1H-imidazol-5-yl)((4-(trifluoromethyl)benzyl)oxy)methyl)-2-(1-naphthyl)benzonitrile hydrochloride]	100	
Cn1cncc1C(OCc1ccc(OC(F)(F)F)cc1)c1ccc(C#N)c(-c2cccc3ccccc23)c1 (centres unmarked) [Example 67, 4-((1-methyl-1H-imidazol-5-yl)((4-(trifluoromethoxy)benzyl)oxy)methyl)-2-(1-naphthyl)benzonitrile hydrochloride]	100	
Cn1cncc1C(OCc1ccc(C(=O)O)cc1)c1ccc(C#N)c(-c2cccc3ccccc23)c1 (centres unmarked) [Example 69, lithium 4-(((4-cyano-3-(1-naphthyl)phenyl)(1-methyl-1H-imidazol-5-yl)methoxy)methyl)benzoate]	100	
Cn1cncc1C(c1ccc(C#N)c(-c2cccc3ccccc23)c1)S(=O)(=O)Cc1ccc(C#N)cc1 (centres unmarked) [Example 71, 4-(((4-cyanobenzyl)sulfonyl)(1-methyl-1H-imidazol-5-yl)methyl)-2-(1-naphthyl)benzonitrile hydrochloride]	100	
